Measurements as given in PubChem BioAssay AID330 (DTP/NCI, 2004).
Several values for one entry are separate records, joined by “and”; a condition that tells them apart may be missing. Equal values may be shown once. Inconclusive results and toxic doses are left out. How the source made its calls: active means survival T/C of 150% or more; inactive means T/C below 125% in these data.

Tested on: P388 leukemia ip, CD2F1 mice, survival T/C
Assay: NCI In Vivo Anticancer Drug Screen. Data for tumor model P388 Leukemia (intraperitoneal) in CD2F1 (CDF1) mice
Details: endpoint: median survival time, higher = longer survival
How it was run: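 Mice carrying the transplanted tumor received test compound or vehicle. Survival was recorded in each group, and the value is the treated-group measurement divided by that of the vehicle-treated control group.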

[1] = dose: 100.0 mg/kg/injection, schedule: Q04DX003 (ip), vehicle: Klucel (hydroxypropylcellulose) (HPC)
[2] = dose: 200.0 mg/kg/injection, schedule: Q04DX003 (ip), vehicle: Klucel (hydroxypropylcellulose) (HPC)
[3] = dose: 400.0 mg/kg/injection, schedule: Q04DX003 (ip), vehicle: Klucel (hydroxypropylcellulose) (HPC)
[4] = dose: 200.0 mg/kg/injection, schedule: Q01DX005 (ip), vehicle: Klucel (hydroxypropylcellulose) (HPC)
[5] = dose: 12.5 mg/kg/injection, schedule: Q01DX009 (ip), vehicle: Klucel (hydroxypropylcellulose) (HPC)
[6] = dose: 50.0 mg/kg/injection, schedule: Q01DX009 (ip), vehicle: Klucel (hydroxypropylcellulose) (HPC)
[7] = dose: 100.0 mg/kg/injection, schedule: Q01DX009 (ip), vehicle: Klucel (hydroxypropylcellulose) (HPC)
[8] = dose: 200.0 mg/kg/injection, schedule: Q01DX009 (ip), vehicle: Klucel (hydroxypropylcellulose) (HPC)
[9] = dose: 25.0 mg/kg/injection, schedule: Q01DX009 (ip), vehicle: saline with Tween-80
[10] = dose: 50.0 mg/kg/injection, schedule: Q01DX009 (ip), vehicle: saline with Tween-80
[11] = dose: 50.0 mg/kg/injection, schedule: Q01DX009 (ip), vehicle: saline
[12] = dose: 100.0 mg/kg/injection, schedule: Q01DX009 (ip), vehicle: saline with Tween-80
[13] = dose: 100.0 mg/kg/injection, schedule: Q01DX009 (ip), vehicle: saline
[14] = dose: 200.0 mg/kg/injection, schedule: Q01DX009 (ip), vehicle: saline
[15] = dose: 12.5 mg/kg/injection, schedule: Q01DX005 (ip), vehicle: Klucel (hydroxypropylcellulose) (HPC)
[16] = dose: 25.0 mg/kg/injection, schedule: Q01DX005 (ip), vehicle: Klucel (hydroxypropylcellulose) (HPC)

Measured: T/C

Brc1cc(-c2ccccc2)on1
inactive: [1] 108 % of control | [2] 103 % of control | [3] 105 % of control

COc1cc(C(=O)CC(=O)CCC(=O)Nc2ccc(C)c(C)c2)ccc1O
inactive: dose: 60.0 mg/kg/injection, schedule: Q01DX005 (ip), vehicle: saline with Tween-80 102 % of control | dose: 120.0 mg/kg/injection, schedule: Q01DX005 (ip), vehicle: saline with Tween-80 104 % of control | dose: 240.0 mg/kg/injection, schedule: Q01DX005 (ip), vehicle: saline with Tween-80 102 % of control

Cc1c(N(C)c2ccccc2)c(=S)n(C)c(=S)n1C
inactive: dose: 50.0 mg/kg/injection, schedule: Q01DX005 (ip), vehicle: Klucel (hydroxypropylcellulose) (HPC) 89 % of control | dose: 100.0 mg/kg/injection, schedule: Q01DX005 (ip), vehicle: Klucel (hydroxypropylcellulose) (HPC) 100 % of control | [4] 90 % of control

CCC(CC)C[Se][Se]CC(CC)CC
inactive: dose: 6.25 mg/kg/injection, schedule: Q01DX009 (ip), vehicle: Klucel (hydroxypropylcellulose) (HPC) 100 % of control | [5] 101 % of control | dose: 25.0 mg/kg/injection, schedule: Q01DX009 (ip), vehicle: Klucel (hydroxypropylcellulose) (HPC) 103 % of control

Clc1cccc(NN=Nc2ccccc2)c1
inactive: [6] 104 % of control | [7] 96 % of control | [8] 103 % of control

O=C(O)CCC/C=N/O
inactive: [1] 98 % of control | [2] 99 % of control | [3] 102 % of control

COc1ccc(N=C(C)C2C(=O)c3ccccc3C2=O)cc1
inactive: dose: 50.0 mg/kg/injection, schedule: Q01DX005 (ip), vehicle: DMSO 100 % of control | dose: 50.0 mg/kg/injection, schedule: Q01DX005 (ip), vehicle: saline with Tween-80 113 % of control | dose: 100.0 mg/kg/injection, schedule: Q01DX005 (ip), vehicle: DMSO 102 % of control | dose: 100.0 mg/kg/injection, schedule: Q01DX005 (ip), vehicle: saline with Tween-80 104 % of control | dose: 200.0 mg/kg/injection, schedule: Q01DX005 (ip), vehicle: DMSO 102 % of control | dose: 200.0 mg/kg/injection, schedule: Q01DX005 (ip), vehicle: saline with Tween-80 95 % of control | dose: 400.0 mg/kg/injection, schedule: Q01DX005 (ip), vehicle: DMSO 117 % of control | dose: 800.0 mg/kg/injection, schedule: Q01DX005 (ip), vehicle: DMSO 99 % of control

CCOC(C[Se]c1ccccc1)OCC(F)(F)F (centres undefined)
inactive: dose: 50.0 mg/kg/injection, schedule: Q04DX003 (ip), vehicle: saline with Tween-80 90 % of control | dose: 100.0 mg/kg/injection, schedule: Q04DX003 (ip), vehicle: saline with Tween-80 102 % of control | dose: 200.0 mg/kg/injection, schedule: Q04DX003 (ip), vehicle: saline with Tween-80 111 % of control

Cc1cc(NS(=O)(=O)c2ccc(N=Nc3cc(N=Nc4ccc(S(=O)(=O)Nc5cc(C)nc(C)n5)cc4)c4c(NC(=O)C(Cl)Cl)cccc4c3OC(=O)C(Cl)Cl)cc2)nc(C)n1 (tested in a mixture with another compound)
inactive: dose: 12.5 mg/kg/injection, schedule: Q01DX009 (ip), vehicle: saline with Tween-80 113 % of control | [9] 117 % of control | [10] 106 % of control [middle of 4 runs] | [11] 108 % of control [middle of 4 runs] | [12] 99 % of control and 105 % of control and 107 % of control | [13] 111 % of control and 115 % of control and 118 % of control | dose: 200.0 mg/kg/injection, schedule: Q01DX009 (ip), vehicle: saline with Tween-80 91 % of control and 95 % of control | [14] 99 % of control

C[n+]1c(-c2ccc(/C=N/NC(=O)C(=O)N/N=C/c3ccc(-c4cn5ccccc5[n+]4C)cc3)cc2)cn2ccccc21
inactive: dose: 7.5 mg/kg/injection, schedule: Q01DX005 (ip), vehicle: saline 109 % of control | dose: 15.0 mg/kg/injection, schedule: Q01DX005 (ip), vehicle: saline 119 % of control

O=C(O)C1Cc2c([nH]c3ccccc23)C(C(=O)O)N1 (centres undefined)
inactive: dose: 50.0 mg/kg/injection, schedule: Q04DX003 (ip), vehicle: saline 95 % of control | dose: 100.0 mg/kg/injection, schedule: Q04DX003 (ip), vehicle: saline 95 % of control | dose: 200.0 mg/kg/injection, schedule: Q04DX003 (ip), vehicle: saline 93 % of control

O=[N+]([O-])c1ccc2nc(Cl)sc2c1
inactive: [9] 95 % of control | [10] 90 % of control | [12] 109 % of control

CCOC(=N)N1[C@H](C)[C@@H]1C
inactive: [15] 109 % of control | [16] 124 % of control | dose: 50.0 mg/kg/injection, schedule: Q01DX005 (ip), vehicle: saline 86 % of control

C[C@]12CC[C@H](O)CC1CC[C@@H]1C2CC[C@]2(C)NC(=O)CCC12 (some centres undefined)
inactive: dose: 100.0 mg/kg/injection, schedule: Q01DX001 (ip), vehicle: saline with Tween-80 108 % of control | dose: 200.0 mg/kg/injection, schedule: Q01DX001 (ip), vehicle: saline with Tween-80 108 % of control | dose: 400.0 mg/kg/injection, schedule: Q01DX001 (ip), vehicle: saline with Tween-80 120 % of control

O=c1[nH]nnc2c1ncn2C1OC(CO)C(O)C1O (centres undefined)
inactive: dose: 12.5 mg/kg/injection, schedule: Q01DX001 (ip), vehicle: saline 99 % of control | dose: 25.0 mg/kg/injection, schedule: Q01DX001 (ip), vehicle: saline 106 % of control | dose: 50.0 mg/kg/injection, schedule: Q01DX001 (ip), vehicle: saline 100 % of control | dose: 100.0 mg/kg/injection, schedule: Q01DX001 (ip), vehicle: saline 99 % of control

COc1ccc2ncc(C)c(COC(C)=O)c2c1
inactive: dose: 100.0 mg/kg/injection, schedule: Q04DX002 (ip), vehicle: saline with Tween-80 102 % of control | dose: 200.0 mg/kg/injection, schedule: Q04DX002 (ip), vehicle: saline with Tween-80 93 % of control | dose: 400.0 mg/kg/injection, schedule: Q04DX002 (ip), vehicle: saline with Tween-80 97 % of control

CCC(=O)NC1=C(Cl)C(=O)C(NC(=O)CC)=C(Cl)C1=O
inactive: [6] 98 % of control | [7] 98 % of control

NC(=S)N/N=C\c1nccc2ccccc12
inactive: dose: 6.25 mg/kg/injection, schedule: Q01DX009 (ip), vehicle: saline 90 % of control | dose: 12.5 mg/kg/injection, schedule: Q01DX009 (ip), vehicle: saline 99 % of control | dose: 50.0 mg/kg/injection, schedule: Q01DX009 (ip), vehicle: suspension in saline 94 % of control

C=C(C)C(C)CC(NC(C)=O)C(=O)OC (centres undefined)
inactive: dose: 62.5 mg/kg/injection, schedule: Q04DX002 (ip), vehicle: Klucel (hydroxypropylcellulose) (HPC) 96 % of control | dose: 125.0 mg/kg/injection, schedule: Q04DX002 (ip), vehicle: Klucel (hydroxypropylcellulose) (HPC) 99 % of control | dose: 250.0 mg/kg/injection, schedule: Q04DX002 (ip), vehicle: Klucel (hydroxypropylcellulose) (HPC) 93 % of control

CCOC(=O)c1ccc(NC(=S)N(CCC#N)C2CCCCC2)cc1
inactive: [6] 93 % of control | [7] 102 % of control | [8] 98 % of control

CCCCCCCC[N+]1([O-])CC[N+](C)([O-])CC1 (centres undefined)
inactive: dose: 60.0 mg/kg/injection, schedule: Q01DX005 (ip), vehicle: saline 100 % of control | dose: 120.0 mg/kg/injection, schedule: Q01DX005 (ip), vehicle: saline 101 % of control | dose: 240.0 mg/kg/injection, schedule: Q01DX005 (ip), vehicle: saline 102 % of control

ClCc1ccc(Oc2ccc(CCl)cc2)cc1
inactive: [5] 120 % of control

[CH3][Ge]([CH3])=[O]
inactive: [11] 102 % of control | [13] 91 % of control | [14] 100 % of control

CCCn1c(CC)nc([N+](=O)[O-])c1Sc1ncnc2nc[nH]c12
inactive: [15] 107 % of control | [16] 123 % of control | [4] 111 % of control
